In US4117118A, “Organic compounds” (Sandoz Ltd., priority 1976, dated 1978):

Tests used:
[1] = amorphous form
Excerpt: Behaviour in the thin layer chromatogram (substance spots made visible with iodine vapour): […]

[2] = tested on: Aspergillus niger; conditions: standard tests

C/C=C/C[C@@H](C)[C@@H](O)[C@H]1C(=O)N[C@@H](C)C(=O)N(C)CC(=O)N(C)[C@@H](CC(C)C)C(=O)N[C@@H](C(C)C)C(=O)N(C)[C@@H](CC(C)C)C(=O)N[C@@H](C)C(=O)N[C@H](C)C(=O)N(C)[C@@H](CC(C)C)C(=O)N(C)[C@@H](CC(C)C)C(=O)N(C)[C@@H](C(C)C)C(=O)N1C [S 7481/F-2, Cyclosporin B]
Solubility in most of the usual organic solvents [1]: readily soluble | Solubility in petroleum ether and water [1]: practically insoluble | Inhibition of the growth of Aspergillus niger [2]: inhibition of the growth
